Experimental data taken from patent publication US9140688B2, “Sperm staining and sorting methods” (INGURAN, LLC, priority 2011, dated 2015).

Columns and labels:
[1] = system: membrane compromised bovine sperm stained with Hoechst 33342; test: Dead quenching: dead gate intensity divided by live gate intensity, flow cytometry of stained bovine sperm; assay type: cell-based; conditions: for Dead Intensity (dead gate intensity divided by live gate intensity): Ex 5
From the text: FIG. 4 illustrates an example bivariate plot and univariate histogram of the parameters measured during sex selection by a FACS on a flow cytometer. […] Without a dead quenching dye, both populations of sperm would overlap to a large extent, with unpredictable variations in the dead sperm.
The entire ejaculate of sperm was suspended in first staining buffer, specifically a 7.4 pH TALP described in TABLE 1, to a concentration of 160×10^6 sperm per mL (determined on nucleocounter) and divided into three aliquots of about 20 mL into 50 mL Falcon tubes and pre-warmed for 10 minutes at 34° C. The DNA selective fluorescent dye, Hoechst 33342, was added and samples were held at 34° C. for 60 minutes. 3 different Hoechst 33342 Stain Levels were used=12 μL, 14 μL and 16 μL per 2 mL (effective concentrations of 48 μM, 56 μM, 64 μM).
Preparation of the second buffer including the dead quenching dye—A 2 L bag of TALP, described in TABLE 1, was adjusted to pH 5.60 using HCl and then sterile filtered. […] For each of the four dyes tested (R40—red food dye No. 40, Y5—yellow food dye No. 5, Y6—yellow food dye No. 6 and PR—phenol red), an appropriate number of milligrams of each powder was placed in a Erlenmeyer Flask and then an exact amount of TALP pH 5.60 was added to create a […] concentration of the dye. The result was a working TALP stock for each dye with a 100% (125 μM) relative amount of dye 50% relative (62.5 μM) and 20% relative (25 μM) solutions were made by dilution of 100% by TALP pH 5.60.
After this “bulk” staining for 60 minutes, 1 mL aliquots of stained sperm were combined with 1 mL aliquots of the second buffer including the dead quenching dyes. Samples sat for approximately 30 minutes at room temperature before being analyzed on a MoFlo SX (Beckman Coulter, USA) sperm sorting flow cytometer. Event rates were held as close to 13,000 as possible at the point of data acquisition.
The total number of individual treatments was 42 tubes, each containing 2 mL of stained sample. The alignment of the sorter was established using nuclei and confirmed with live sample from the 50% Red 40 series. Once good alignment was established, each tube was placed on the sorter long enough to establish a stabile dead gate population (about 30 seconds) and then a screenshot was taken and saved as a .jpeg image. This approach of rapidly documenting each sample is used to assure the most consistent alignment between all samples. Realignment of sorter will not cause differences in the intensities of live and dead gate populations but will cause differences in split quality.
FIG. 4 illustrates an example histogram. The ratio of dead gate intensity divided by live gate intensity is created by dividing the distance “A” by the distance “B” shown as a percentage. Lower values mean higher levels of quenching. The ratio of peak height divided by valley height is created by dividing the distance “C” by the distance “D”. A value of 1.00 means “no split” while higher values mean “better splits”. […]

[2] = system: X- and Y-chromosome bearing bovine sperm stained with Hoechst 33342; test: Split quality: height of peak divided by height of valley (PV), flow cytometry of stained bovine sperm; assay type: cell-based; conditions: for Height of Peak/Height of Valley: Ex 5
[3] = solvent water; shorter-wavelength local maximum; cited from earlier work
elk sperm [4] = test: Post thaw motility of bulk sorted elk sperm (Example 3); assay type: cell-based; conditions: 0 HR; RED TALP with 16 μL, Y6 with 14 μL Hoechst 33342
Procedure: (§1) Each of deer and elk were collected in the Tris-egg yolk catch fluid described as a catch media in Example 1, and shipped for sorting.
(§2) A portion of each of the deer and the elk were stained by the red food dye No. 40 treatment 40% with 16 μL Hoechst 33342 and the yellow food dye No. 6 treatment with 14 μL Hoechst 33342 as described in Example 1.
(§3) Samples were each bulk sorted with the same machine and parameters described in Example 1. Both sorted X and sorted Y sperm were collected into a single catch. The sorted samples were then frozen like those described in Example 1.
(§4) Frozen thawed samples were then tested for post thaw motilities and post thaw DNA fragmentation. Post thaw motilities were slightly higher in Elk sorted with a yellow quencher, while a more significant difference existed in progressive motility. In Table 10, post thaw DNA fragmentation in Elk can be seen at about double after 48 hours when red food dye No. 40 is compared to yellow food dye No. 6 as a dead quencher.

elk sperm [5] = test: Post thaw DNA fragmentation of elk sperm (Example 3); assay type: cell-based; conditions: elk
Procedure: as §1, §2, §3, §4

deer sperm = test: Post thaw motility of bulk sorted deer sperm (Example 3); assay type: cell-based; conditions: 0 HR; RED TALP with 16 μL, Y6 with 14 μL Hoechst 33342
Procedure: as §1, §2, §3, §4

[6] = dye 62.5 μM, Hoechst 12 μL/2 mL
[7] = dye 62.5 μM, Hoechst 14 μL/2 mL
[8] = dye 62.5 μM, Hoechst 16 μL/2 mL
[9] = Ex 6, dye 62.5 μM, resulting pH 6.70, Hoechst 48 μM

COc1cc(S(=O)(=O)O)c(C)cc1N=Nc1c(O)ccc2cc(S(=O)(=O)O)ccc12 [Red 40, 6-hydroxy-5-[(2-methoxy-5-methyl-4-sulfophenyl)azo]-2-naphthalenesulfonic acid, reference compound]
Dead Intensity (dead gate intensity divided by live gate intensity) ([1]; dye 25 μM, Average of Hoechst levels): 68% | Dead Intensity (dead gate intensity divided by live gate intensity) ([1]; dye 25 μM, Hoechst 12 μL/2 mL): 68% | Dead Intensity (dead gate intensity divided by live gate intensity) ([1]; dye 25 μM, Hoechst 14 μL/2 mL): 72% | Dead Intensity (dead gate intensity divided by live gate intensity) ([1]; dye 25 μM, Hoechst 16 μL/2 mL): 65% | Dead Intensity (dead gate intensity divided by live gate intensity) ([1]; dye 62.5 μM, Average of Hoechst levels): 52% | Dead Intensity (dead gate intensity divided by live gate intensity) [1, 6]: 53% | Dead Intensity (dead gate intensity divided by live gate intensity) [1, 7]: 53% | Dead Intensity (dead gate intensity divided by live gate intensity) [1, 8]: 50% | Dead Intensity (dead gate intensity divided by live gate intensity) ([1]; dye 125 μM, Average of Hoechst levels): 38% | Dead Intensity (dead gate intensity divided by live gate intensity) ([1]; dye 125 μM, Hoechst 12 μL/2 mL): 37% | Dead Intensity (dead gate intensity divided by live gate intensity) ([1]; dye 125 μM, Hoechst 14 μL/2 mL): 41% | Dead Intensity (dead gate intensity divided by live gate intensity) ([1]; dye 125 μM, Hoechst 16 μL/2 mL): 35% | Intensity (dead gate) [1, 9]: 53% | Height of Peak/Height of Valley ([2]; dye 25 μM, Average of 12 and 14 μL series): 2.00 | Height of Peak/Height of Valley ([2]; dye 25 μM, Hoechst 12 μL/2 mL): 2.05 | Height of Peak/Height of Valley ([2]; dye 25 μM, Hoechst 14 μL/2 mL): 1.94 | Height of Peak/Height of Valley ([2]; dye 25 μM, Hoechst 16 μL/2 mL): 1.00 | Height of Peak/Height of Valley ([2]; dye 62.5 μM, Average of 12 and 14 μL series): 1.64 | Height of Peak/Height of Valley [2, 6]: 1.65 | Height of Peak/Height of Valley [2, 7]: 1.62 | Height of Peak/Height of Valley [2, 8]: 1.00 | Height of Peak/Height of Valley ([2]; dye 125 μM, Average of 12 and 14 μL series): 1.88 | Height of Peak/Height of Valley ([2]; dye 125 μM, Hoechst 12 μL/2 mL): 1.75 | Height of Peak/Height of Valley ([2]; dye 125 μM, Hoechst 14 μL/2 mL): 2.00 | Height of Peak/Height of Valley ([2]; dye 125 μM, Hoechst 16 μL/2 mL): 1.21 | PV [2, 9]: 1.00 | PV ([2]; Ex 8, Bull 1, Hoechst 60 μM, R40 20 μM alone): 1.62 | PV ([2]; Ex 8, Bull 2, Hoechst 44 μM, R40 20 μM alone): 1.54 | PV ([2]; Ex 9, Bull 3, Hoechst 60 μM, R40 50 μM, R3 0 μM): 1.44 | Expected Absorption Maxima [3]: 505 nm | Post Thaw Motility Elk, Motile (elk sperm [4]): 51.0 | Post Thaw Motility Elk, Progressive (elk sperm [4]): 29.0 | Post Thaw DNA fragmentation Elk, Post Sort (elk sperm [5]; 0 h): 0% | Post Thaw DNA fragmentation Elk, Pre-sort (elk sperm [5]; 0 h): 2.3% | Post Thaw DNA fragmentation Elk, Post Sort (elk sperm [5]; 24 h): 0.3% | Post Thaw DNA fragmentation Elk, Pre-sort (elk sperm [5]; 24 h): 5.6% | Post Thaw DNA fragmentation Elk, Post Sort (elk sperm [5]; 48 h): 0.7% | Post Thaw DNA fragmentation Elk, Pre-sort (elk sperm [5]; 48 h): 6% | Post Thaw Motility Deer, Motile (deer sperm): 59.8 | Post Thaw Motility Deer, Progressive (deer sperm): 43.0
